Activity calls are given as the source filed them. No cut-off for these calls is given here.

The test system of one assay is Staphylococcus aureus. The experiment in a line: Antimicrobial activity against methicillin-resistant Staphylococcus aureus at 50 ug/ml after 12 hrs by microbroth dilution method. In kind it is functional, organism-based. For orientation: Dilution methods test growth across graded concentrations, often in twofold steps.
The next assay deals with Candida albicans. The experiment in a line: Antimicrobial activity against Candida albicans at 50 ug/ml after 12 hrs by microbroth dilution method. It is filed as functional, organism-based.
Assay [1] has as its system U-87 MG. The experiment in a line: Antiproliferative activities against human U-87 MG cells by SRB assay. In kind it is functional, cell-based, U-87MG ATCC. For orientation: In SRB staining, fixed cells bind dye roughly in proportion to their protein.
In assay [2] the test system is U-251. The experiment in a line: Antiproliferative activities against human U-251 cells by SRB assay. In kind it is functional, cell-based.
For a further assay, the system named is Escherichia coli. In words: Antimicrobial activity against Escherichia coli at 50 ug/ml after 12 hrs by microbroth dilution method. It is filed as functional, organism-based.
Assay [3] concerns U-251. In words: Antiproliferative activities against human U-251 cells at 50 uM by SRB assay. It is filed as functional, cell-based.
For assay [4], the system named is U-87 MG. In words: Antiproliferative activities against human U-87 MG cells at 50 uM by SRB assay. It is filed as functional, cell-based. As to conditions: u-87mg atcc.

Regarding `CC(=O)NC[C@H](OC(=O)c1cc2c3ccccc3n(C)c2c(=O)[nH]1)c1ccccc1`, the outcome in the assay with Staphylococcus aureus, with Candida albicans and with Escherichia coli was inactive. The values for the IC50 in the assay on U-87 MG [1] and with U-251 [2] were 19 µM and 15 µM, respectively.

As for `CO[C@@]1(C)N(/C=C/c2ccccc2)C(=O)C2=C[C@@]3(C(=O)N(C)c4ccccc43)C(=O)N21`, the result in the assay with Staphylococcus aureus, in the assay with Candida albicans and in the assay with Escherichia coli was inactive. For the same compound, the values for the IC50 in the assay with U-87 MG [1] and in the assay on U-251 [2] were 7.2 µM and 5.8 µM, respectively.

For the compound `CO[C@@]1(C)N(CCc2ccccc2)C(=O)c2cc3c4ccccc4n(C)c3c(=O)n21`, the result with Staphylococcus aureus, in the assay on Candida albicans and in the assay on Escherichia coli was inactive. The IC50 (commonly the concentration at which inhibition is half-maximal) with U-87 MG [1] worked out at 8.9 µM; with U-251 [2] it was 27 µM.

Turning to `O=C(NCCc1ccccc1)c1cc2c([nH]c3ccccc32)c(=O)[nH]1`, the half-inhibitory concentration (IC50) result in the assay with U-251 [3] and with U-87 MG [4] was “Not Active” throughout. In addition, the outcome in the assay with Staphylococcus aureus, in the assay with Candida albicans and in the assay on Escherichia coli was inactive.

Take `COc1cc(/C=N/OCCc2ccccc2)nc(-c2ccccn2)c1`: the result in the assay on Staphylococcus aureus, in the assay on Candida albicans and in the assay with Escherichia coli was inactive. In addition, the half-maximal inhibitory concentration (IC50) with U-87 MG [1] worked out at 6.5 µM; with U-251 [2] it was 2 µM.

For `CCCCCc1[nH]c(=O)c2cnccc2c1C`, the IC50 result with U-251 [3] and in the assay on U-87 MG [4] was “Not Active” each time. Moreover, the outcome in the assay on Staphylococcus aureus, in the assay on Candida albicans and in the assay on Escherichia coli was inactive.

Take `CO[C@@]1(C)N(C[C@H](O)c2ccccc2)C(=O)c2cc3c4ccccc4n(C)c3c(=O)n21`: the outcome in the assay with Staphylococcus aureus, in the assay on Candida albicans and in the assay with Escherichia coli was inactive. In addition, the values for the IC50 in the assay with U-87 MG [1] and with U-251 [2] were 17 µM and 19 µM, respectively.

For the compound `Cn1c2ccccc2c2cc(C(=O)NCCc3ccccc3)[nH]c(=O)c21`, the result in the assay with Staphylococcus aureus, in the assay on Candida albicans and in the assay with Escherichia coli was inactive. Moreover, the concentration for half-maximal inhibition (IC50) in the assay with U-87 MG [1] came to 11 µM; in the assay on U-251 [2], 13 µM.

With `Cn1c2ccccc2c2cc3n(c(=O)c21)[C@@](C)(O)N(CCc1ccccc1)C3=O`, the 50% inhibitory concentration (IC50) result with U-251 [3] and in the assay on U-87 MG [4] was “Not Active” throughout. Further, the result with Staphylococcus aureus, in the assay on Candida albicans and in the assay on Escherichia coli was inactive.

Turning to `CC(=O)c1nc(C(=O)NC[C@H](O)c2ccccc2)cc2c3ccccc3n(C)c12`, the IC50 entry with U-251 [3] and with U-87 MG [4] was “Not Active” in each case. Moreover, the result in the assay on Staphylococcus aureus, with Candida albicans and in the assay with Escherichia coli was inactive.

For `CO[C@@]1(C)N(C[C@@H](O)c2ccccc2)C(=O)c2cc3c4ccccc4n(C)c3c(=O)n21`, the result in the assay with Staphylococcus aureus, with Candida albicans and with Escherichia coli was inactive. The 50% inhibitory concentration (IC50) in the assay with U-87 MG [1] came out at 29 µM; in the assay with U-251 [2] it was 36 µM.

Turning to `CO[C@@]1(C)N(/C=C\c2ccccc2)C(=O)c2cc3c([nH]c4ccccc43)c(=O)n21`, the 50% inhibitory concentration (IC50) result with U-251 [3] and in the assay on U-87 MG [4] was “Not Active” each time. The result in the assay with Staphylococcus aureus, with Candida albicans and in the assay with Escherichia coli was inactive.

Turning to `CO[C@@]1(C)N(/C=C\c2ccccc2)C(=O)c2cc3c4ccccc4n(C)c3c(=O)n21`, the outcome in the assay on Staphylococcus aureus, in the assay on Candida albicans and in the assay on Escherichia coli was inactive. Moreover, the IC50 in the assay on U-87 MG [1] turned out to be 2.3 µM; in the assay on U-251 [2] it was 12 µM.

For `CC(=O)c1nc(C(=O)NCCc2ccccc2)cc2c3ccccc3n(C)c12`, the result in the assay on Staphylococcus aureus, with Candida albicans and in the assay with Escherichia coli was inactive. Further, the concentration for half-maximal inhibition (IC50) with U-87 MG [1] was 7.4 µM; in the assay on U-251 [2] it was 12 µM.

Consider `CO[C@@]1(C)N(/C=C/c2ccccc2)C(=O)c2cc3c4ccccc4n(C)c3c(=O)n21`, for which the outcome in the assay on Staphylococcus aureus, in the assay on Candida albicans and in the assay with Escherichia coli was inactive. For the same compound, the IC50 was 4.5 µM with U-87 MG [1] and 17 µM in the assay with U-251 [2].

Turning to `CO[C@@]1(C)N(/C=C/c2ccccc2)C(=O)c2cc3c([nH]c4ccccc43)c(=O)n21`, the result in the assay on Staphylococcus aureus, in the assay on Candida albicans and with Escherichia coli was inactive. Besides, the 50% inhibitory concentration (IC50) was 43 µM in the assay with U-87 MG [1] and 36 µM in the assay with U-251 [2].

Turning to `CC(=O)c1nc(C(=O)NCCc2ccccc2)cc2c1[nH]c1ccccc12`, the result with Staphylococcus aureus, in the assay with Candida albicans and in the assay on Escherichia coli was inactive. Besides, the IC50 in the assay with U-87 MG [1] was 13 µM; in the assay with U-251 [2] it was 12 µM.

For `COc1cccc2c1C(=O)c1c(O)c3c(c(O)c1C2=O)C[C@@](O)(C(=O)CO)C[C@@H]3O[C@H]1C[C@H](N)[C@H](O)[C@H](C)O1` [DOXORUBICIN], the IC50 was 0.6 µM in the assay on U-87 MG [1] and 3.9 µM with U-251 [2].

The record behind these values is ChEMBL document CHEMBL4665777, “Bioactive Alkaloids from the Actinomycete Actinoalloteichus sp. ZZ1866” (J Nat Prod, 2020).
